IC50 data for 23 compounds are collected here from patent publication US10508085B2, “Compounds and methods for IDO and TDO modulation, and indications therefor” (Plexxikon Inc., priority 2016, dated 2019).

Bounds are passed on as bounds.

Assay [1] deals with T1, human IDO (IDO1-expressing HEK293 cells) (Homo sapiens, UniProt P14902).
T1 construct: expressed in transfected cells
The experiment in a line: Cell based kynurenine assay, IDO1-expressing HEK293 cell clones. As to conditions: IDO1-expressing HEK293 cells, 24 hours incubation; geometric mean; read-out: HEK293 IDO1 Kynurenine GMean IC50 (μM) (Cellular Assay). The procedure: Determine Inhibitor Activity Against IDO or TDO in Cell Based Kynurenine Assay
IDO1-expressing or TDO-expressing HEK293 cell clones are generated upon stable transfection of plasmids expressing human IDO or human TDO under the control of CMV promoter. Cells are selected in DMEM media supplemented with 10% fetal bovine serum and 1 mg/ml G418 at 37° C. in a humidified incubator supplied with 5% CO2. The assays are performed as follows.
Cells were seeded in a 96 well plate in 50 μL of culture media at a density of 2.5×10^4 per well. Serial dilutions of compounds (in total volume of 50 μL culture media) are added into cells. 4 wells containing 0.2% DMSO treated cells serve as high controls and 4 wells containing media only with 0.2% DMSO serve as low controls. After 24 hours of incubation, the supernatant was transferred to a 384 well reaction plate and the kynurenine level determined. The percentage inhibition at individual concentrations relative to high and low controls is calculated. The data is analyzed by using nonlinear regression to generate IC50 values.

Assay [2] concerns the target T2, Human Indoleamine 2,3-dioxygenase (IDO) (Homo sapiens, UniProt P14902).
T2 construct: His tag (N); made in house; host or cells: E. coli
In words: Human IDO enzymatic assay (kynurenine level). As to conditions: 6 nM IDO, 10 μM L-Trp; geometric mean; read-out: IDO1 GMean: IC50 (μM) (Biochemical Assay). The format is biochemical. An outline of the steps:
(§1)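 N-His human IDO (6 nM, 10 μM L-Trp, 5 μM methylene blue, 20 min) or TDO (1 nM, 350 μM L-Trp, 0.4 μM methylene blue, 70 min) run at room temp in pH 6.5 phosphate with ascorbate, catalase, Tween 20. TCA stop, 30 min 50 °C converts N-formylkynurenine to kynurenine; IC50 by nonlinear regression.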

The target in assay [3] is T3, Human Tryptophan 2,3-dioxygenase (TDO) (Homo sapiens, UniProt P48775).
T3 construct: His tag (N); made in house; host or cells: E. coli
T3 sequence (P48775 whole entry): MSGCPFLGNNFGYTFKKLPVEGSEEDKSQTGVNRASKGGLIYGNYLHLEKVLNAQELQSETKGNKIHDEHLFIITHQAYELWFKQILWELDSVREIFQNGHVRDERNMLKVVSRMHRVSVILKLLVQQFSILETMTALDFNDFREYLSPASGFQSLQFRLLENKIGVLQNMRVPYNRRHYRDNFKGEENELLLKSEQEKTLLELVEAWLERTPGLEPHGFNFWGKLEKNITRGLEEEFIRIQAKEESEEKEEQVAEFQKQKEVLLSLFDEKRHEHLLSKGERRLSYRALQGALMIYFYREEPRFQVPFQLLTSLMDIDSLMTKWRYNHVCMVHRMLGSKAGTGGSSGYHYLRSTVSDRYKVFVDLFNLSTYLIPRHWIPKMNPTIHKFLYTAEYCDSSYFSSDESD
The experiment in a line: Human TDO enzymatic assay (kynurenine level). The format is biochemical. Conditions: 1 nM TDO, 350 μM L-Trp; geometric mean; read-out: TDO GMean: IC50 (μM) (Biochemical Assay). An outline of the steps: as §1

T1 sequence (P14902 whole entry): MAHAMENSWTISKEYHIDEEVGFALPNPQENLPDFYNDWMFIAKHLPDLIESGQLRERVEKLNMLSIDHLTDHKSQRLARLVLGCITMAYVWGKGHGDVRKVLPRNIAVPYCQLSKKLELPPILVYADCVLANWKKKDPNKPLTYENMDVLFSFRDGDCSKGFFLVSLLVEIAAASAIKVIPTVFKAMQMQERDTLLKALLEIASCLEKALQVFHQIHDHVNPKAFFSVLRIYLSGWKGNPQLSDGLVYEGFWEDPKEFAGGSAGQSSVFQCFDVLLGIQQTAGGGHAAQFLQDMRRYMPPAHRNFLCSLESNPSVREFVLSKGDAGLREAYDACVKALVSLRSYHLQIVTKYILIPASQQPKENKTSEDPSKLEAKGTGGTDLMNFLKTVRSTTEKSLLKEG
T2 sequence (P14902 whole entry): as above

In general, IC50 refers to the concentration at which inhibition is half-maximal. With `CC(C)(C)OC(=O)N1CCC2(CC1)CC(O)(c1cc(Cl)cc3cn[nH]c13)C2` [Compound P-0019, tert-butyl 2-(5-chloro-1H-indazol-7-yl)-2-hydroxy-7-azaspiro[3.5]nonane-7-carboxylate], the 50% inhibitory concentration (IC50) in assay [1] was over 10 µM. On to `CS(=O)(=O)N1CCC(O)(c2cc(Cl)cc3cn[nH]c23)CC1` [Compound P-0023, 4-(5-chloro-1H-indazol-7-yl)-1-(methylsulfonyl)piperidin-4-ol], for which, in assay [1], the 50% inhibitory concentration (IC50) is over 10 µM. As to `Cc1ccc2cn[nH]c2c1C(O)C1(C)CCCCC1` (centres unmarked) [Compound P-0015, (6-methyl-1H-indazol-7-yl)(1-methylcyclohexyl)methanol], the IC50 in assay [2], in assay [3] and in assay [1] was 0.0001 to 10 µM throughout. Consider `O=S1(=O)CC2(CC(O)(c3cc(Cl)cc4cn[nH]c34)C2)C1` [Compound P-0056, 6-(5-chloro-1H-indazol-7-yl)-6-hydroxy-2-thiaspiro[3.3]heptane 2,2-dioxide], for which the IC50 in assay [2] is 10 to 100 µM; in assay [1], over 10 µM. Take `CS(=O)(=O)N1CC(O)(c2cc(Cl)cc3cn[nH]c23)C1` [Compound P-0024, 3-(5-chloro-1H-indazol-7-yl)-1-(methylsulfonyl)azetidin-3-ol]: the IC50 in assay [1] was over 10 µM. In the case of `CC(C)(C1CCN(C(=O)NCCN2CCCS2(=O)=O)CC1)[C@H](O)c1cc(Cl)cc2cn[nH]c12` [Compound P-0678, (S)-4-(1-(5-chloro-1H-indazol-7-yl)-1-hydroxy-2-methylpropan-2-yl)-N-(2-(1,1-dioxidoisothiazolidin-2-yl)ethyl)piperidine-1-carboxamide], the IC50 in assay [2] and in assay [3] was 0.0001 to 10 µM each time. Consider `CC(C)(C1CCN(/C(N)=N/C#N)CC1)C(O)c1cc(Cl)cc2cn[nH]c12` (centres unmarked) [Compound P-0573, (E)-4-(1-(5-chloro-1H-indazol-7-yl)-1-hydroxy-2-methylpropan-2-yl)-N′-cyanopiperidine-1-carboximidamide], for which the half-maximal inhibitory concentration (IC50) in assay [2] and in assay [3] was 0.0001 to 10 µM in each case. Take `CC1(CNC(=O)N2CCC(C(C)(C)[C@H](O)c3cc(Cl)cc4cn[nH]c34)CC2)CC1` [Compound P-0599, (S)-4-(1-(5-chloro-1H-indazol-7-yl)-1-hydroxy-2-methylpropan-2-yl)-N-((1-methylcyclopropyl)methyl)piperidine-1-carboxamide]: the IC50 in assay [2] and in assay [3] was 0.0001 to 10 µM in each case. As for `OC(c1ccccc1Cl)c1cccc2cncn12` (centres unmarked) [Compound P-0077, (2-chlorophenyl)(imidazo[1,5-a]pyridin-5-yl)methanol], the IC50 in assay [2] is over 200 µM; in assay [3], 10 to 100 µM.

On to `O=C(NC1CC1)N1CCC(C(F)(F)[C@H](O)c2c3c(cc4cn[nH]c24)CC3)CC1` [Compound P-0628, (R)-N-cyclopropyl-4-(2-(5,6-dihydro-1H-cyclobuta[f]indazol-7-yl)-1,1-difluoro-2-hydroxyethyl) piperidine-1-carboxamide], for which the half-maximal inhibitory concentration (IC50) in assay [2] and in assay [3] was 0.0001 to 10 µM throughout. With `CC(C)(C1CCN(C(=O)NCC#N)CC1)[C@H](O)c1cc(Cl)cc2cn[nH]c12` [Compound P-0587, (S)-4-(1-(5-chloro-1H-indazol-7-yl)-1-hydroxy-2-methylpropan-2-yl)-N-(cyanomethyl) piperidine-1-carboxamide], the 50% inhibitory concentration (IC50) in assay [2] and in assay [3] was 0.0001 to 10 µM in each case.

On to `OC(c1ccccc1F)c1cccc2cncn12` (centres unmarked) [Compound P-0066, (2-fluorophenyl)(imidazo[1,5-a]pyridin-5-yl)methanol], for which the concentration for half-maximal inhibition (IC50) in assay [2] and in assay [3] was 0.0001 to 10 µM each time. As for `CC(C)(C1CCN(C(=O)NCc2cccnc2)CC1)[C@H](O)c1cc(Cl)cc2cn[nH]c12` [Compound P-0679, (S)-4-(1-(5-chloro-1H-indazol-7-yl)-1-hydroxy-2-methylpropan-2-yl)-N-(pyridin-3-ylmethyl)piperidine-1-carboxamide], the half-inhibitory concentration (IC50) in assay [2] and in assay [3] was 0.0001 to 10 µM throughout. For the compound `OC(c1cccc2cncn12)C1CCOCC1` (centres unmarked) [Compound P-0075, imidazo[1,5-a]pyridin-5-yl(tetrahydro-2H-pyran-4-yl)methanol], the half-inhibitory concentration (IC50) in assay [2] and in assay [3] was 0.0001 to 10 µM each time. For the compound `CC(C)(C1CCN(C(=O)NC2(C#N)CC2)CC1)[C@H](O)c1cc(Cl)cc2cn[nH]c12` [Compound P-0672, (S)-4-(1-(5-chloro-1H-indazol-7-yl)-1-hydroxy-2-methylpropan-2-yl)-N-(1-cyanocyclopropyl) piperidine-l-carboxamide], the IC50 in assay [2] and in assay [3] was 0.0001 to 10 µM in each case. In the case of `CC(C)(C1CCN(C(=O)NCC(=O)O)CC1)[C@H](O)c1cc(Cl)cc2cn[nH]c12` [Compound P-0673, (S)-(4-(1-(5-chloro-1H-indazol-7-yl)-1-hydroxy-2-methylpropan-2-yl)piperidine-1-carbonyl)glycine], the half-maximal inhibitory concentration (IC50) in assay [2] and in assay [3] was 0.0001 to 10 µM in each case.

As to `CC(C)(C1CCN(C(=O)NCC(F)F)CC1)[C@H](O)c1cc(Cl)cc2cn[nH]c12` [Compound P-0581, (S)-4-(1-(5-chloro-1H-indazol-7-yl)-1-hydroxy-2-methylpropan-2-yl)-N-(2,2-difluoroethyl) piperidine-1-carboxamide], the IC50 in assay [2] and in assay [3] was 0.0001 to 10 µM throughout. As to `CCC(=O)N1CCC(C(F)(F)[C@H](O)c2c3c(cc4cn[nH]c24)CC3)CC1` [Compound P-0612, (R)-1-(4-(2-(5,6-dihydro-1H-cyclobuta[f]indazol-7-yl)-1,1-difluoro-2-hydroxyethyl)piperidin-1-yl) propan-1-one], the concentration for half-maximal inhibition (IC50) in assay [2] and in assay [3] was 0.0001 to 10 µM in each case. Turning to `OC(c1cccc(OCc2ccccc2)c1)c1cccc2cncn12` (centres unmarked) [Compound P-0071], the IC50 in assay [2] was in the range of 0.0001 to 10 µM; in assay [3], 10 to 100 µM.

Regarding `CN1CCN(Cc2ccc(NC(=O)N3CCC(C(C)(C)[C@H](O)c4cc(Cl)cc5cn[nH]c45)CC3)cc2)CC1` [Compound P-0676, (S)-4-(1-(5-chloro-1H-indazol-7-yl)-1-hydroxy-2-methylpropan-2-yl)-N-(4-((4-methylpiperazin-1-yl)methyl)phenyl) piperidine-1-carboxamide], the IC50 in assay [2] and in assay [3] was 0.0001 to 10 µM throughout. `CC(C)(C1CCN(C(=O)NCCF)CC1)[C@H](O)c1cc(Cl)cc2cn[nH]c12` [Compound P-0580, (S)-4-(1-(5-chloro-1H-indazol-7-yl)-1-hydroxy-2-methylpropan-2-yl)-N-(2-fluoroethyl) piperidine-1-carboxamide]: the IC50 in assay [2] and in assay [3] was 0.0001 to 10 µM throughout. On to `CC(C)(C1CCN(C(=O)NC2COC2)CC1)[C@H](O)c1cc(Cl)cc2cn[nH]c12` [Compound P-0595, (S)-4-(1-(5-chloro-1H-indazol-7-yl)-1-hydroxy-2-methylpropan-2-yl)-N-(oxetan-3-yl)piperidine-1-carboxamide], for which the concentration for half-maximal inhibition (IC50) in assay [2] and in assay [3] was 0.0001 to 10 µM in each case. For the compound `COc1ccc(CNC(=O)N2CCC(C(C)(C)[C@H](O)c3cc(Cl)cc4cn[nH]c34)CC2)cn1` [Compound P-0585, (S)-4-(1-(5-chloro-1H-indazol-7-yl)-1-hydroxy-2-methylpropan-2-yl)-N-((6-methoxypyridin-3-yl)methyl)piperidine-1-carboxamide], the half-maximal inhibitory concentration (IC50) in assay [2] and in assay [3] was 0.0001 to 10 µM each time.
